In brackets after ≈: the same amount, converted by molar mass.
Key:
[1] = molecular target: T1, UcpA (Escherichia coli, UniProt P37440, T153Q); format: biochemical; details: lysates of induced LY180 (pLOI4856) vs empty vector control, appropriate cofactors
T1 construct: made in house; host or cells: E. coli LY180 (pLOI4856), IPTG-induced; clarified cell lysate, not purified
Protocol: Cultures were grown overnight to a cell density of approximately 0.66 mg dcw ml^−1 (37° C.) in closed tubes containing 20 ml AM1 (50 g liter^−1 xylose, 0.1 mM IPTG and 12.5 mg liter^−1 ampicillin). Cells were harvested by centrifugation (7,000 g for 5 min, 4° C.), washed twice with 10 ml of cold sodium phosphate buffer (50 mM pH 7.0), resuspended to a cell density of 4.4 mg dcw ml^−1, and disrupted in buffer containing 1 mM dithiothreitol using a Fastprep-24 (MP Biomedicals, Solon, Ohio). After clarification at 13,000 g (10 min, 4° C.), protein concentration was determined using a BCA™ Protein Assay Kit (Thermo Scientific, Rockford, Ill.). Furfural-dependent reduction was measured using NADH and NADPH by monitoring the decrease in absorbance at 340 nm (extinction coefficient of NADH of 6,220 M^−1 cm^−1; extinction coefficient of NADPH of […]). Reaction mixtures contained 200 mM phosphate buffer (pH 7.0), 10 mM furfural, and 0.2 mM NADH or NADPH. NADH-dependent and NADPH-dependent reduction of 5-HMF (10 mM) was measured in a similar fashion.
Additional compounds (ethanol, glycerol, n-butanol, 2-propanol, methanol, acetoin, diacetyl, methyglyoxal, dihydroxyacetone, acetaldehyde, and 1,3-propandiol) were tested as potential substrates for UcpA using appropriate cofactors.

[2] = system: LY180 (pLOI4856); experiment: Furfural toxicity / MIC in tube cultures, ucpA plasmid; format: cell-based, Escherichia coli
Protocol: (§1) Furfural toxicity was measured in tube cultures (13 mm by 100 mm) containing 4 ml of AM1 medium with 50 g liter^−1 xylose, 12.5 mg liter^−1 ampicillin, furfural, and other supplements as indicated (Miller et al., 2009a, b). Cultures were inoculated to an initial density of 22 mg dcw liter^−1. IPTG (0.1 mM) was included for fucO induction. Cell mass was measured at 550 nm after incubation for 48 h (37° C.). For cysteine supplement experiment, the culture condition was the same but included 0.1 mM cysteine as an amendment.
(§2) Derivatives of LY180 containing these plasmids were tested for furfural tolerance with (0.1 mM IPTG) and without IPTG induction using an MIC assay (Miller et al., 2009a; Miller et al., 2010; Wang et al., 2011b).

[3] = system: LY180(pTrc99A); experiment: Furfural toxicity / MIC in tube cultures, vector control; format: cell-based, Escherichia coli
Protocol: as §1, §2

[4] = molecular target: YqhD (Escherichia coli, UniProt Q46856); details: read-out: Km for NADPH; cited from earlier work
[5] = Escherichia coli, read-out: MIC for 5-HMF

T1 sequence (P37440 whole entry T153Q): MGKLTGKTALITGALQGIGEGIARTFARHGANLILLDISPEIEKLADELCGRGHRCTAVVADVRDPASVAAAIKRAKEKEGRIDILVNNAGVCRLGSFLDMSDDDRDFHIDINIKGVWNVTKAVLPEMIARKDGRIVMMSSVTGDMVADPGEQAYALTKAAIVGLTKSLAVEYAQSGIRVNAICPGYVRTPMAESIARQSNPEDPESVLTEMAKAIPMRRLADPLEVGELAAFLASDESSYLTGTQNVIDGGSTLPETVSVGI
YqhD, sequence (Q46856 whole entry): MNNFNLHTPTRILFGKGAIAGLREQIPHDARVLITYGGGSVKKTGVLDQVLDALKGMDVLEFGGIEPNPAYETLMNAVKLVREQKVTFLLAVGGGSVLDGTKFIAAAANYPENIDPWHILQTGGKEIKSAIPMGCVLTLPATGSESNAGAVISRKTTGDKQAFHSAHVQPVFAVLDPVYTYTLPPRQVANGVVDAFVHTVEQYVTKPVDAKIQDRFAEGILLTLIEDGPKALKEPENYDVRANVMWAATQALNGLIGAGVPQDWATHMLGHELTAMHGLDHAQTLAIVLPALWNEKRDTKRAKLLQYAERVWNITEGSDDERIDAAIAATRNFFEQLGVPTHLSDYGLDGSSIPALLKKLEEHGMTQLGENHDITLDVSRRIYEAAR

Row | Compound | Metabolism as substrate for UcpA [1] | other results
1 | CC=O [acetaldehyde] | none appeared to be metabolized | –
2 | O=Cc1ccc(CO)o1 [5-HMF, 5-hydroxymethylfurfural] | – | MIC [2, 5]: 20 mM (≈ 2520 µg/mL); MIC [3, 5]: 16 mM (≈ 2020 µg/mL)
3 | CCO [ethanol] | none appeared to be metabolized | –
4 | CO [methanol] | none appeared to be metabolized | –
5 | NADPH | – | Km [4]: 8 µM
6 | CCCCO [n-butanol] | none appeared to be metabolized | –
7 | OCCCO [1,3-propandiol] | none appeared to be metabolized | –
8 | CC(C)O [2-propanol] | none appeared to be metabolized | –
9 | N[C@@H](CS)C(=O)O [L-cysteine, reference compound] | – | Effect of L-cysteine supplement on growth in the presence of furfural ([2]; 0.1 mM L-cysteine, 10 mM furfural, ucpA induced): did not alter the growth; Effect of L-cysteine supplement on growth in the presence of furfural ([3]; 0.1 mM L-cysteine, 10 mM furfural): cell growth was increased
10 | CC(=O)C(C)=O [diacetyl] | none appeared to be metabolized | –
11 | methyglyoxal | none appeared to be metabolized | –
12 | OCC(O)CO [glycerol] | none appeared to be metabolized | –
13 | CC(=O)C(C)O (stereo not drawn) [acetoin] | none appeared to be metabolized | –

Source: patent US9347077B2, “Over-expression of a putative oxidoreductase (UcpA) for increasing furfural or 5-hydroxymethylfurfural tolerance” (UNIVERSITY OF FLORIDA RESEARCH FOUNDATION, INCORPORATED, priority 2011, dated 2016)
